Source: US9416111B2, “Substituted diazine and triazine spleen tyrosine kinease (Syk) inhibitors” (Merck Sharp & Dohme Corp., priority 2012, dated 2016)

The molecules below were run against T1, recombinant human GST-SYK (Homo sapiens, UniProt P43405) (assay: Homogeneous Time-Resolved Fluorescence (HTRF) assay for the recombinant human Syk enzyme). Conditions: GST-hSYK 5 pM, ATP 25 μM, IC50 rated in classes, read-out: rhSYK Activity.
T1 construct: purchased Carna Biosciences 08-176
Format: biochemical
In short: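 GST-hSYK (5 pM) was preincubated 10 min with inhibitor in 15 mM Tris-HCl pH 7.5, 0.01% tween 20, 2 mM DTT; reaction started with 250 nM biotinylated peptide, 5 mM Mg and 25 μM ATP, run 45 min at room temperature. Phosphopeptide detected by HTRF (Eu-anti-phosphotyrosine/SA-APC) after EDTA quench.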

Structure (SMILES)	IC50 [nM]
O=C(O)CCc1cnc(-c2cccc(Nc3nccc(C(F)(F)F)n3)c2)cn1 [Example 3.4, 3-[5-(3-{[4-(trifluoromethyl)pyrimidin-2-yl]amino}phenyl)pyrazin-2-yl]propanoic acid]	100 to 1000
Cc1cc(Nc2nccc(C(F)(F)F)n2)cc(-c2cnc(CCC(=O)O)cn2)c1 [Example 3.8, 3-[5-(3-methyl-5-{[4-(trifluoromethyl)pyrimidin-2-yl]amino}phenyl)pyrazin-2-yl]propanoic acid]	< 100
CCOC(=O)CCc1cnc(-c2cc(C)cc(Nc3nccc(C)n3)c2)cn1 [Example 3.9, ethyl 3-(5-{3-methyl-5-[(4-methylpyrimidin-2-yl)amino]phenyl}pyrazin-2-yl)propanoate]	100 to 1000
Cc1cc(Nc2nccc(C)n2)cc(-c2cnc(CCC(=O)O)cn2)c1 [Example 3.10, 3-(5-{3-methyl-5-[(4-methylpyrimidin-2-yl)amino]phenyl}pyrazin-2-yl)propanoic acid]	100 to 1000
Cc1cc(Nc2nccc(C3CC3)n2)cc(-c2cnc(CCC(=O)O)cn2)c1 [Example 3.12, 3-(5-{3-[(4-cyclopropylpyrimidin-2-yl)amino]-5-methylphenyl}pyrazin-2-yl)propanoic acid]	< 100
CCOC(=O)CCc1cncc(-c2cccc(Nc3nccc(C(F)(F)F)n3)c2)n1 [Example 3.13, ethyl 3-[6-(3-{[4-(trifluoromethyl)pyrimidin-2-yl]amino}phenyl)pyrazin-2-yl]propanoate]	1000 to 10000
O=C(O)CCc1cncc(-c2cccc(Nc3nccc(C(F)(F)F)n3)c2)n1 [Example 3.14, 3-[6-(3-{[4-(trifluoromethyl)pyrimidin-2-yl]amino}phenyl)pyrazin-2-yl]propanoic acid]	100 to 1000
Cc1cc(Nc2nccc(C(F)(F)F)n2)cc(-c2cncc(CCC(=O)O)n2)c1 [Example 3.18, 3-[6-(3-methyl-5-{[4-(trifluoromethyl)pyrimidin-2-yl]amino}phenyl)pyrazin-2-yl]propanoic acid]	< 100
CCOC(=O)CCc1cncc(-c2cc(C)cc(Nc3nccc(C)n3)c2)n1 [Example 3.19, ethyl 3-(6-{3-methyl-5-[(4-methylpyrimidin-2-yl)amino]phenyl}pyrazin-2-yl)propanoate]	100 to 1000
CCOC(=O)CCc1cncc(-c2cc(C)cc(Nc3nccc(C4CC4)n3)c2)n1 [Example 3.21, ethyl 3-(6-{3-[(4-cyclopropylpyrimidin-2-yl)amino]-5-methylphenyl}pyrazin-2-yl)propanoate]	100 to 1000
Cc1cc(Nc2nccc(C3CC3)n2)cc(-c2cncc(CCC(=O)O)n2)c1 [Example 3.22, 3-(6-{3-[(4-cyclopropylpyrimidin-2-yl)amino]-5-methylphenyl}pyrazin-2-yl)propanoic acid]	< 100
CCOC(=O)CCc1ccc(-c2cccc(Nc3nccc(C(F)(F)F)n3)c2)nn1 [Example 3.24, ethyl 3-[6-(3-{[4-(trifluoromethyl)pyrimidin-2-yl]amino}phenyl)pyridazin-3-yl]propanoate]	1000 to 10000
O=C(O)CCc1ccc(-c2cccc(Nc3nccc(C(F)(F)F)n3)c2)nn1 [Example 3.25, 3-[6-(3-{[4-(trifluoromethyl)pyrimidin-2-yl]amino}phenyl)pyridazin-3-yl]propanoic acid]	100 to 1000
Cc1cc(Nc2nccc(C(F)(F)F)n2)cc(-c2ccc(-c3ccc(C(=O)O)cc3)nn2)c1 [Example 3.33, 4-[6-(3-methyl-5-{[4-(trifluoromethyl)pyrimidin-2-yl]amino}phenyl)pyridazin-3-yl]benzoic acid]	< 100
Cc1cc(Nc2nccc(C(F)(F)F)n2)cc(-c2ccc(C(C)(C)O)nn2)c1 [Example 3.36, 2-[6-(3-methyl-5-{[4-(trifluoromethyl)pyrimidin-2-yl]amino}phenyl)pyridazin-3-yl]propan-2-ol]	100 to 1000
Cc1cc(Nc2nccc(C(F)(F)F)n2)cc(-c2ccc(N3CCC(C(=O)O)CC3)nn2)c1 [Example 3.37, 1-[6-(3-methyl-5-{[4-(trifluoromethyl)pyrimidin-2-yl]amino}phenyl)pyridazin-3-yl]piperidine-4-carboxylic acid]	< 100
Cc1cc(Nc2nccc(C(F)(F)F)n2)cc(-c2ccc(N(C)CC(=O)O)nn2)c1 [Example 3.38, N-methyl-N-[6-(3-methyl-5-{[4-(trifluoromethyl)pyrimidin-2-yl]amino}phenyl)pyridazin-3-yl]glycine]	< 100
Cc1cc(Nc2nccc(C(F)(F)F)n2)cc(-c2ccc(CCC(=O)O)nn2)c1 [Example 3.39, 3-[6-(3-methyl-5-{[4-(trifluoromethyl)pyrimidin-2-yl]amino}phenyl)pyridazin-3-yl]propanoic acid]	< 100
CCOC(=O)CCc1ccc(-c2cc(C)cc(Nc3nccc(C)n3)c2)nn1 [Example 3.40, ethyl 3-(6-{3-methyl-5-[(4-methylpyrimidin-2-yl)amino]phenyl}pyridazin-3-yl)propanoate]	100 to 1000
Cc1cc(Nc2nccc(C)n2)cc(-c2ccc(CCC(=O)O)nn2)c1 [Example 3.41, 3-(6-{3-methyl-5-[(4-methylpyrimidin-2-yl)amino]phenyl}pyridazin-3-yl)propanoic acid]	100 to 1000

Second part, the molecule after the results:

IC50 [nM]	Structure (SMILES)
1000 to 10000	CCOC(=O)CCc1cnc(-c2cccc(Nc3nccc(C(F)(F)F)n3)c2)cn1 [Example 3.3, ethyl 3-[5-(3-{[4-(trifluoromethyl)pyrimidin-2-yl]amino}phenyl)pyrazin-2-yl]propanoate]
< 100	COc1ccnc(Nc2cc(C)cc(-c3cnc(CCC(=O)O)cn3)c2)n1 [Example 3.6, 3-(5-{3-[(4-methoxypyrimidin-2-yl)amino]-5-methylphenyl}pyrazin-2-yl)propanoic acid]
100 to 1000	CCOC(=O)CCc1cnc(-c2cc(C)cc(Nc3nccc(C(F)(F)F)n3)c2)cn1 [Example 3.7, ethyl 3-[5-(3-methyl-5-{[4-(trifluoromethyl)pyrimidin-2-yl]amino}phenyl)pyrazin-2-yl]propanoate]
< 100	CCOC(=O)CCc1cnc(-c2cc(C)cc(Nc3nccc(C4CC4)n3)c2)cn1 [Example 3.11, ethyl 3-(5-{3-[(4-cyclopropylpyrimidin-2-yl)amino]-5-methylphenyl}pyrazin-2-yl)propanoate]
< 100	COc1ccnc(Nc2cc(C)cc(-c3cncc(CCC(=O)O)n3)c2)n1 [Example 3.16, 3-(6-{3-[(4-methoxypyrimidin-2-yl)amino]-5-methylphenyl}pyrazin-2-yl)propanoic acid]
100 to 1000	CCOC(=O)CCc1cncc(-c2cc(C)cc(Nc3nccc(C(F)(F)F)n3)c2)n1 [Example 3.17, ethyl 3-[6-(3-methyl-5-{[4-(trifluoromethyl)pyrimidin-2-yl]amino}phenyl)pyrazin-2-yl]propanoate]
100 to 1000	Cc1cc(Nc2nccc(C)n2)cc(-c2cncc(CCC(=O)O)n2)c1 [Example 3.20, 3-(6-{3-methyl-5-[(4-methylpyrimidin-2-yl)amino]phenyl}pyrazin-2-yl)propanoic acid]
100 to 1000	Cc1cc(Nc2nccc(C(F)(F)F)n2)cc(-c2ncccn2)c1 [Example 3.23, N-(3-methyl-5-pyrimidin-2-ylphenyl)-4-(trifluoromethyl)pyrimidin-2-amine]
100 to 1000	CCOC(=O)CCc1ccc(-c2cc(C)cc(Nc3nccc(C(F)(F)F)n3)c2)nn1 [Example 3.27, ethyl 3-[6-(3-methyl-5-{[4-(trifluoromethyl)pyrimidin-2-yl]amino}phenyl)pyridazin-3-yl]propanoate]
100 to 1000	Cc1cc(Nc2nccc(C(F)(F)F)n2)cc(-c2cccnn2)c1 [Example 3.28, N-(3-methyl-5-pyridazin-3-ylphenyl)-4-(trifluoromethyl)pyrimidin-2-amine]
100 to 1000	Cc1cc(Nc2nccc(C(F)(F)F)n2)cc(-c2ccc(N3CCOCC3)nn2)c1 [Example 3.29, N-[3-methyl-5-(6-morpholin-4-ylpyridazin-3-yl)phenyl]-4-(trifluoromethyl)pyrimidin-2-amine]
100 to 1000	Cc1cc(Nc2nccc(C(F)(F)F)n2)cc(-c2ccc(N3CCC(O)CC3)nn2)c1 [Example 3.30, 1-[6-(3-methyl-5-{[4-(trifluoromethyl)pyrimidin-2-yl]amino}phenyl)pyridazin-3-yl]piperidin-4-ol]
< 100	Cc1cc(Nc2nccc(C(F)(F)F)n2)cc(-c2ccc(N3CCC(C(N)=O)CC3)nn2)c1 [Example 3.31, 1-[6-(3-methyl-5-{[4-(trifluoromethyl)pyrimidin-2-yl]amino}phenyl)pyridazin-3-yl]piperidine-4-carboxamide]
< 100	Cc1cc(Nc2nccc(C(F)(F)F)n2)cc(-c2ccc(-c3cccc(C(=O)O)c3)nn2)c1 [Example 3.32, 3-[6-(3-methyl-5-{[4-(trifluoromethyl)pyrimidin-2-yl]amino}phenyl)pyridazin-3-yl]benzoic acid]
< 100	Cc1cc(Nc2nccc(C(F)(F)F)n2)cc(-c2ccc(OC(C)(C)C(=O)O)nn2)c1 [Example 3.34, 2-methyl-2-{[6-(3-methyl-5-{[4-(trifluoromethyl)pyrimidin-2-yl]amino}phenyl)pyridazin-3-yl]oxy}propanoic acid]
100 to 1000	Cc1cc(Nc2nccc(C(F)(F)F)n2)cc(-c2ccc(N(CCN(C)C)C(=O)N(C)C)nn2)c1 [Example 3.35, 1-[2-(dimethylamino)ethyl]-3,3-dimethyl-1-[6-(3-methyl-5-{[4-(trifluoromethyl)pyrimidin-2-yl]amino}phenyl)pyridazin-3-yl]urea]
100 to 1000	CCOC(=O)CCc1ccc(-c2cc(C)cc(Nc3nccc(C4CC4)n3)c2)nn1 [Example 3.42, ethyl 3-(6-{3-[(4-cyclopropylpyrimidin-2-yl)amino]-5-methylphenyl}pyridazin-3-yl)propanoate]
100 to 1000	Cc1cc(Nc2nccc(C(F)(F)F)n2)cc(-c2ccnnc2)c1 [Example 3.43, N-(3-methyl-5-pyridazin-4-ylphenyl)-4-(trifluoromethyl)pyrimidin-2-amine]
